Publication PMC6138237, “Machine intelligence decrypts β-lapachone as an allosteric 5-lipoxygenase inhibitor” (Chemical Science, 2018)
Like-named read-outs stand apart in the source and are kept apart here.

Legend:
5-LO = molecular target: T1, 5-LO (Homo sapiens, UniProt P09917); type: biochemical
T1 sequence (P09917 1-674): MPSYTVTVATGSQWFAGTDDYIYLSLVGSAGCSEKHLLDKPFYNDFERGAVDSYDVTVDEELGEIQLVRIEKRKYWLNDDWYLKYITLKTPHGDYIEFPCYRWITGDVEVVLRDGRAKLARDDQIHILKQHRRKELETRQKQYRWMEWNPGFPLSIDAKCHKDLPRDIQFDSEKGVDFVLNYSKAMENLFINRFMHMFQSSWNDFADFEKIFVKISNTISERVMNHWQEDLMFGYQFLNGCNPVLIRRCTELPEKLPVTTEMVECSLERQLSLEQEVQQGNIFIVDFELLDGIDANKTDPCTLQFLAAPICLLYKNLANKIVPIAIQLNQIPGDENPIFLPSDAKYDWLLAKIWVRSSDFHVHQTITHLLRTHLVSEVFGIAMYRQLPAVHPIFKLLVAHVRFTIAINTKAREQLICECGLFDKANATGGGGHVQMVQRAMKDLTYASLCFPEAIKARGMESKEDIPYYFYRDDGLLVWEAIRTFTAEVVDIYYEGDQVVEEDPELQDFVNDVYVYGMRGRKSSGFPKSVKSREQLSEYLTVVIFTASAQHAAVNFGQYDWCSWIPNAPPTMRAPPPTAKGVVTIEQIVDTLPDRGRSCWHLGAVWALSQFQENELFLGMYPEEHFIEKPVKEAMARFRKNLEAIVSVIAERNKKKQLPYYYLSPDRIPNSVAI

TRPV1 = TRPV1 (Homo sapiens, UniProt Q8NER1); test: TRPV1 functional agonist assay, Cerep (intracellular Ca2+); type: cell-based; details: TRPV1 (agonist), 150 µM
Chain of TRPV1 (Q8NER1 whole entry): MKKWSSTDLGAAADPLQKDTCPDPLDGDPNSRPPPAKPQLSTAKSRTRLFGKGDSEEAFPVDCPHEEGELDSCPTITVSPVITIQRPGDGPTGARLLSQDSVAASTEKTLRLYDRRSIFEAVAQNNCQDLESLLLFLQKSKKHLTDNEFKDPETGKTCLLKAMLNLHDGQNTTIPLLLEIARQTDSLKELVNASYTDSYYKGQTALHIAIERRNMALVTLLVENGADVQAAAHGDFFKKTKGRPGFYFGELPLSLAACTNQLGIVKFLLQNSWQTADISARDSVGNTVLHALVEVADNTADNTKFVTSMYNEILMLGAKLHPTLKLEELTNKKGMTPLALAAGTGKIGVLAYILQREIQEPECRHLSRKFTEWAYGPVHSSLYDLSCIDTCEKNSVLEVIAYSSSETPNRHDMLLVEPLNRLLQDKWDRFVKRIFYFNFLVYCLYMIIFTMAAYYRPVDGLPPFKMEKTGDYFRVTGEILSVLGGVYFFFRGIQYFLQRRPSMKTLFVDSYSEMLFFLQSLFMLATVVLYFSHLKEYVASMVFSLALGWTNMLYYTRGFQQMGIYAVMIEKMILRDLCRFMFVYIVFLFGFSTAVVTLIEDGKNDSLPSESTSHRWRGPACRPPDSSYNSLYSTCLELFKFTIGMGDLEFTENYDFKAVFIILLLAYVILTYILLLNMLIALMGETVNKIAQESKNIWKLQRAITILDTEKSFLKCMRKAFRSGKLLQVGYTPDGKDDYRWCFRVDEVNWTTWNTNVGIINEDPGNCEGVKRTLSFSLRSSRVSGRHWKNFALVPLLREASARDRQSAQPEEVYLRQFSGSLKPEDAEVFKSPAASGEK

EGFR = EGFR (Homo sapiens, UniProt P00533); test: ExpresS Diversity Kinase Profile, Cerep (LANCE): EGFR; type: biochemical
Chain of EGFR (P00533 25-1210): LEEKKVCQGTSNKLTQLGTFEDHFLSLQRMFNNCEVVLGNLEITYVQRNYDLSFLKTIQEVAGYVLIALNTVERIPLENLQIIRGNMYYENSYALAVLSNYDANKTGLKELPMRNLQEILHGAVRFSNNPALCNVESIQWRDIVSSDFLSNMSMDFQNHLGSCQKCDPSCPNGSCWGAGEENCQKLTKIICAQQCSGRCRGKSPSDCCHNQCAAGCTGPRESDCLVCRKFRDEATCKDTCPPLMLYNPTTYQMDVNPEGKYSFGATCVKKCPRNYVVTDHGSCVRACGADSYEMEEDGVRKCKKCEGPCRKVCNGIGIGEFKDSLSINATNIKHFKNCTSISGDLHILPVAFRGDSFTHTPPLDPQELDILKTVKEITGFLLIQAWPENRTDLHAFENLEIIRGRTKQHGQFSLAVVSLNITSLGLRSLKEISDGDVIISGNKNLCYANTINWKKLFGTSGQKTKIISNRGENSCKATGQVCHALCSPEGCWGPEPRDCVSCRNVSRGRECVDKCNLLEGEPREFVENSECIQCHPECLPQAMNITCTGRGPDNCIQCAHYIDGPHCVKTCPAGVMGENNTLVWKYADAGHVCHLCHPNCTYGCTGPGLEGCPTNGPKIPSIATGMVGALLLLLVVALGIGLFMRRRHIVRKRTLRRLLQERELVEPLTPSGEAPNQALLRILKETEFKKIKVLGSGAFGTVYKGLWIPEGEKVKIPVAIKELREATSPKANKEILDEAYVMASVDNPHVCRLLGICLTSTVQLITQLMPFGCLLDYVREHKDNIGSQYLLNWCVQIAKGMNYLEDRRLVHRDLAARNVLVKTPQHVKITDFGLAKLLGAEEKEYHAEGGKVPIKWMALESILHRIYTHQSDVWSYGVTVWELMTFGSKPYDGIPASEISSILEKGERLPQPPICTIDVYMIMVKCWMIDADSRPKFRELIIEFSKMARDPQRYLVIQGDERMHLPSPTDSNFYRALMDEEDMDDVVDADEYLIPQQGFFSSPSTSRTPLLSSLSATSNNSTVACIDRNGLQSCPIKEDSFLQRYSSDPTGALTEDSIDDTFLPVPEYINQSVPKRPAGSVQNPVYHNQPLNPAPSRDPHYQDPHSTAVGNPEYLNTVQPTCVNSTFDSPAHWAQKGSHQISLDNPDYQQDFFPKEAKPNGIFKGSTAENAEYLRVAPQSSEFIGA

PLK1 = PLK1 (Homo sapiens, UniProt P53350); test: ExpresS Diversity Kinase Profile, Cerep (LANCE): PLK1; type: biochemical
Chain of PLK1 (P53350 whole entry): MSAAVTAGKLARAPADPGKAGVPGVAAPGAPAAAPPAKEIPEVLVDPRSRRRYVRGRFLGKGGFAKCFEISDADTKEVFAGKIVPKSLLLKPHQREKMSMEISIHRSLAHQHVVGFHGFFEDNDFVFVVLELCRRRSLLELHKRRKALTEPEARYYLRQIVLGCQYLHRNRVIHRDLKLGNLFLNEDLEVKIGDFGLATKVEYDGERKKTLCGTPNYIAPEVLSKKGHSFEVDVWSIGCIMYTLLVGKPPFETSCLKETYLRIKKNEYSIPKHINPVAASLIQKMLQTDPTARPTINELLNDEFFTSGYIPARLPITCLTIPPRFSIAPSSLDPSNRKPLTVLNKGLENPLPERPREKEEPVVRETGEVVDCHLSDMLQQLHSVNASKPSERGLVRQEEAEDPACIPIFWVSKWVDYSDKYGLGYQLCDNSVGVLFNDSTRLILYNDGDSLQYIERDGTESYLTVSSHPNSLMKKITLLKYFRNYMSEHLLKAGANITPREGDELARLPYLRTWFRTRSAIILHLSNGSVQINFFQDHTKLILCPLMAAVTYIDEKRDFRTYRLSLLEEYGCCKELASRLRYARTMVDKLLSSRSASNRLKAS

FGFR1 = FGFR1 (Homo sapiens, UniProt P11362); test: ExpresS Diversity Kinase Profile, Cerep (LANCE): FGFR1; type: biochemical
Chain of FGFR1 (P11362 22-822): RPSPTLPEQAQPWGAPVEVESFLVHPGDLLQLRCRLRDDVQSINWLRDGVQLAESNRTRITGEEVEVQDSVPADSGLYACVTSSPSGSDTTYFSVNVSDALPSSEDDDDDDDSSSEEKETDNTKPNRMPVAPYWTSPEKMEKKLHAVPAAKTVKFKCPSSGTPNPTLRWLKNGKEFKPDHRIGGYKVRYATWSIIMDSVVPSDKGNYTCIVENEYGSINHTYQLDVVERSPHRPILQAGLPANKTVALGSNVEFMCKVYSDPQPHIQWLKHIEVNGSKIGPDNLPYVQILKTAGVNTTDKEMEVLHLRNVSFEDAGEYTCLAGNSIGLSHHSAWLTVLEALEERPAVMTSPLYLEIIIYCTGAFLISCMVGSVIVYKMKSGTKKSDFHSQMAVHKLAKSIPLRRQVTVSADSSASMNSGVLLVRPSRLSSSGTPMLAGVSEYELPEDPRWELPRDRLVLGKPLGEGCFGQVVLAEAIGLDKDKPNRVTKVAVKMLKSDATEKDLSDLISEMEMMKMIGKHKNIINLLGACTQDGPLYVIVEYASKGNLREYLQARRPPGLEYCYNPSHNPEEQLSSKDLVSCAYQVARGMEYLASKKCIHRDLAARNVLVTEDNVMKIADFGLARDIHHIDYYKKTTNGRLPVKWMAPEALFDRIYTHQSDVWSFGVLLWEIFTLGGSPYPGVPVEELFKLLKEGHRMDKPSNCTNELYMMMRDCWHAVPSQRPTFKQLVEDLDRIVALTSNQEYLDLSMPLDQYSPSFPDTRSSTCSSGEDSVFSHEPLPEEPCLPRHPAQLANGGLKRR

FGFR3 = FGFR3 (Homo sapiens, UniProt P22607); test: ExpresS Diversity Kinase Profile, Cerep (LANCE): FGFR3; type: biochemical
FGFR2 = FGFR2 (Homo sapiens, UniProt P21802); test: ExpresS Diversity Kinase Profile, Cerep (LANCE): FGFR2; type: biochemical
Chain of FGFR2 (P21802 22-821): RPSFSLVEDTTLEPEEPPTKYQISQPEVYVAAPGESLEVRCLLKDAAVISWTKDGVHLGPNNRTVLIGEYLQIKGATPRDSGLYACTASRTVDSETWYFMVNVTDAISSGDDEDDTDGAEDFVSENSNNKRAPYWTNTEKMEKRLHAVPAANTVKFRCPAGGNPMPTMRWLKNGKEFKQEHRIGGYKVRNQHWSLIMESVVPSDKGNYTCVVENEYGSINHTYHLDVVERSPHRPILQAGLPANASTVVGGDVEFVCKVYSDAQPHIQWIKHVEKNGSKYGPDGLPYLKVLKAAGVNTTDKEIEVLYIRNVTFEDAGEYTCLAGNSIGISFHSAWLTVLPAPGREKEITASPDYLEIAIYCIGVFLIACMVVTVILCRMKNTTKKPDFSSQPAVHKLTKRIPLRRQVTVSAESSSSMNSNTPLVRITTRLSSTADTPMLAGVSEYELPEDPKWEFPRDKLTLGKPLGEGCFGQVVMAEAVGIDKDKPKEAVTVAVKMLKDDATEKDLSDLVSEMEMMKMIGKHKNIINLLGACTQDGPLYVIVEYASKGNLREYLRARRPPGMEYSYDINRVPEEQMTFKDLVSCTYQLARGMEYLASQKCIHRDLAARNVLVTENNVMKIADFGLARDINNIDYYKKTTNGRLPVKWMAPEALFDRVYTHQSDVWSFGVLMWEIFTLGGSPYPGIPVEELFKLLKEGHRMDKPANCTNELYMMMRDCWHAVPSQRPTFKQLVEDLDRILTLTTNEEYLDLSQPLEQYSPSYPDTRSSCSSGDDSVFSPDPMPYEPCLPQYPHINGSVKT

TRKA = TRKA (Homo sapiens, UniProt P04629); test: ExpresS Diversity Kinase Profile, Cerep (LANCE): TRKA; type: biochemical
ERK2 = ERK2 (Homo sapiens, UniProt P28482); test: ExpresS Diversity Kinase Profile, Cerep (LANCE): ERK2; type: biochemical
p38α = p38α (Homo sapiens, UniProt Q16539); test: ExpresS Diversity Kinase Profile, Cerep (LANCE): p38α; type: biochemical; details: 150 µM
MAPKAPK2 = MAPKAPK2 (Homo sapiens, UniProt P49137); test: ExpresS Diversity Kinase Profile, Cerep (LANCE): MAPKAPK2; type: biochemical
Chain of MAPKAPK2 (P49137 whole entry): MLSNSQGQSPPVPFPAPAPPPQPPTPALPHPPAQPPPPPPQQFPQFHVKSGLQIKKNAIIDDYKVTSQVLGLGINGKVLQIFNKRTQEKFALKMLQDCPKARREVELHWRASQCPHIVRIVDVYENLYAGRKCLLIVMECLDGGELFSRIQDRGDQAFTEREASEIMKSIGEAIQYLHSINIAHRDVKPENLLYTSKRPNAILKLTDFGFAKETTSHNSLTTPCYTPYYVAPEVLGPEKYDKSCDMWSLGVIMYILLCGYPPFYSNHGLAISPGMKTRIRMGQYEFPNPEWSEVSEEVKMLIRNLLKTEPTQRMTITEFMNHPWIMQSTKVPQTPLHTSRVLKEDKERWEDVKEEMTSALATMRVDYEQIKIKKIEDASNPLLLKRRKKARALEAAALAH

SIK = SIK (Homo sapiens, UniProt P57059); test: ExpresS Diversity Kinase Profile, Cerep (LANCE): SIK; type: biochemical; details: 150 µM
EP2 [1] = molecular target: T2, EP2 (Homo sapiens, UniProt P43116); test: EP2 functional agonist assay, Cerep (cAMP, HTRF)
T2 sequence (P43116 whole entry): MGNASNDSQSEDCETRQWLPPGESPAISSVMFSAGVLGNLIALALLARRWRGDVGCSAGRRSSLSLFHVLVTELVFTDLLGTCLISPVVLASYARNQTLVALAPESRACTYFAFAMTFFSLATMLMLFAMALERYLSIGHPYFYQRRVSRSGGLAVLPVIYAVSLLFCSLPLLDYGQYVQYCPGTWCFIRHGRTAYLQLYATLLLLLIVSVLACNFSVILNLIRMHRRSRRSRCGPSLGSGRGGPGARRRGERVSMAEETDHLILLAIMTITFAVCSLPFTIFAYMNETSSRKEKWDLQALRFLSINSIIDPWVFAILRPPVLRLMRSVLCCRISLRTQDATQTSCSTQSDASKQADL

HL-60 cells = test: HL-60 cell viability assay (Alamar Blue, 48 hours); details: Homo sapiens, HL-60, 48 h
EP2 [2] = molecular target: T2, EP2; test: EP2 functional antagonist assay, Cerep (PGE2 100 nM, cAMP)
[3] = read-out: % of control values, 1st measurement
[4] = read-out: % of control values, 2nd measurement
[5] = n = 2, read-out: % Inhibition of control values, Mean
[6] = read-out: % Inhibition of control values, 1st measurement
[7] = read-out: % Inhibition of control values, 2nd measurement
[8] = Flag: Interference, read-out: % Inhibition of control values, 1st measurement
[9] = Flag: Interference, read-out: % Inhibition of control values, 2nd measurement
[10] = n = 2, Flag: Interference, read-out: % Inhibition of control values, Mean

With `CC1(C)CCC2=C(O1)c1ccccc1C(=O)C2=O` [β-Lapachone] the “inhibition of 5-LO at varying arachidonic acid concentrations” value (5-LO; AA 2.5–40 μM, n = 3) was “non-competitive inhibition”, the IC50 (5-LO; IC50 (3 μg mL^–1, PC), competition with phosphatidylcholine 3 μg/mL, n = 3) was 100 nM and the IC50 (5-LO; IC50 (30 μg mL^–1, PC), competition with phosphatidylcholine 30 μg/mL, n = 3) was 1000 nM. The IC50 (5-LO; IC50 (with DTT), cell-free, reducing conditions, 1 mM dithiothreitol (DTT), n = 3) was 240 nM, the IC50 (5-LO; IC50 (without Triton X100), cell-free, plus 1 mM DTT, no Triton X100, n = 3) was 120 nM and the IC50 (5-LO; cell-free, absence of DTT, n = 3, read-out: IC50 (without DTT)) was greater than 30000 nM. For the same compound, the IC50 (5-LO; cell-free, plus 1 mM DTT, 0.01% Triton X100, n = 3, read-out: IC50 (with Triton X100)) was 90 nM, the “5-LO activity upon wash-out” value (5-LO; wash-out experiment, 10-fold dilution, plus 1 mM DTT) was “reinstated” and the remaining activity at 150 µM (TRPV1; n = 2, read-out: % of control values, Mean) was -4.6%. It also gave a remaining activity at 150 µM (TRPV1; [3]) of -7.3%, a remaining activity at 150 µM (TRPV1; [4]) of -1.9% and an inhibition at 150 µM (EGFR; [5]) of 67.1%. It also gave an inhibition at 150 µM (EGFR; [6]) of 68.5%, an inhibition at 150 µM (EGFR; [7]) of 65.7% and an inhibition at 150 µM (PLK1; [5]) of 60%. It also gave an inhibition at 150 µM (PLK1; [6]) of 61.1%, an inhibition at 150 µM (PLK1; [7]) of 58.9% and an inhibition at 150 µM (FGFR1; [8]) of 51.5%. For the same compound, the inhibition at 150 µM (FGFR1; [9]) was 60.5%, the inhibition at 150 µM (FGFR1; [10]) was 56% and the inhibition at 150 µM (FGFR3; [8]) was 76.5%. For the same compound, the inhibition at 150 µM (FGFR3; [9]) was 85.1%, the inhibition at 150 µM (FGFR3; [10]) was 80.8% and the inhibition at 150 µM (FGFR2; [8]) was 44.8%. The inhibition at 150 µM (FGFR2; [9]) was 55.2%, the inhibition at 150 µM (FGFR2; [10]) was 50% and the inhibition at 150 µM (TRKA; [8]) was 38.1%. It also gave an inhibition at 150 µM (TRKA; [9]) of 45.7%, an inhibition at 150 µM (TRKA; [10]) of 41.9% and an inhibition at 150 µM (ERK2; [5]) of 45.9%. For the same compound, the inhibition at 150 µM (ERK2; [6]) was 44.8%, the inhibition at 150 µM (ERK2; [7]) was 46.9% and the inhibition at 150 µM (p38α; [5]) was 25.1%. It also gave an inhibition at 150 µM (p38α; [6]) of 27.1%, an inhibition at 150 µM (p38α; [7]) of 23.1% and an inhibition at 150 µM (MAPKAPK2; [8]) of -14.5%. It also gave an inhibition at 150 µM (MAPKAPK2; [9]) of -2.7%, an inhibition at 150 µM (MAPKAPK2; [10]) of -8.6% and an inhibition at 150 µM (SIK; [8]) of 41.8%. For the same compound, the inhibition at 150 µM (SIK; [9]) was 40.3%, the inhibition at 150 µM (SIK; [10]) was 41% and the remaining activity at 150 µM (EP2 [1]; [3]) was 12.3%. The remaining activity at 150 µM (EP2 [1]; [4]) was 14.8%, the remaining activity at 150 µM (EP2 [1]; read-out: % of control values, Mean) was 13.5% and the IC50 (HL-60 cells; read-out: IC50 (control)) was 390 nM. The IC50 (HL-60 cells; read-out: IC50 (differentiated)) was 180 nM and the IC50 (EP2 [2]) was roughly 100 µM.
